Test results taken from patent US20070049564A1 (Wyeth, priority 2005, published 2007).
In brackets after ≈: the same amount, converted by molar mass. Where two headings read alike, the source gives them in different places.

Key:
E. coli GC 2236 = experiment: MIC, broth microdilution; settings: Escherichia coli, GC2236, E. coli GC 2236
E. coli GC 2235 = experiment: MIC, broth microdilution; settings: Escherichia coli, GC2235, E. coli GC 2235
E. coli GC 2233 = experiment: MIC, broth microdilution; settings: Escherichia coli, GC2233, E. coli GC 2233
E. coli GC 2270 = experiment: MIC, broth microdilution; settings: Escherichia coli, GC2270, E. coli GC 2270
E. coli GC 2271 = experiment: MIC, broth microdilution; settings: Escherichia coli, GC2271, E. coli GC 2271
Experimental: (§1) Antimicrobial susceptibility testing. The in vitro activities of the antibiotics are determined by the broth microdilution method as recommended by the National Committee for Clinical Laboratory Standards (NCCLS) (1). Mueller-Hinton II broth (MHBII)(BBL Cockeysville, Md.) is the medium employed in the testing procedures. Microtiter plates containing serial dilutions of each antimicrobial agent are inoculated with each organism to yield the appropriate density (10^5 CFU/ml) in a 100 μl final volume. The plates are incubated for 18-22 hours at 35° C. in ambient air.
Representative compounds were first incubated in mouse serum for an hour prior to the in vitro testing against a panel of selected gram-positive and gram-negative bacteria strains. All compounds were also pre-incubated in water for an hour prior to testing as control.

E. coli GC 3226 = experiment: MIC, broth microdilution; settings: Escherichia coli, GC3226, E. coli GC 3226
E. coli GC 1073 = experiment: MIC, broth microdilution; settings: Escherichia coli, GC1073, E. coli GC 1073
S. typhimurium GC 2172 = experiment: MIC, broth microdilution; settings: Salmonella enterica, TYPHIMURIUM, S. typhimurium GC 2172
S. aureus GC 1079 = experiment: MIC, broth microdilution; settings: Staphylococcus aureus, GC1079, S. aureus GC 1079
S. aureus GC 6335 = experiment: MIC, broth microdilution; settings: Staphylococcus aureus, GC6335, S. aureus GC 6335
S. aureus GC 6469 = experiment: MIC, broth microdilution; settings: Staphylococcus aureus, GC6469, S. aureus GC 6469
E. faecalis GC 4555 = experiment: MIC, broth microdilution; settings: Enterococcus faecalis, GC4555, E. faecalis GC 4555
E. faecalis GC 2265 = experiment: MIC, broth microdilution; settings: Enterococcus faecalis, GC2265, E. faecalis GC 2265
E. faecium GC 4556 = experiment: MIC, broth microdilution; settings: Enterococcus faecium, GC4556, E. faecium GC 4556
E. faecium GC 2243 = experiment: MIC, broth microdilution; settings: Enterococcus faecium, GC2243, E. faecium GC 2243
S. pyogenes GC 4563 = experiment: MIC, broth microdilution; settings: Streptococcus pyogenes, GC4563, S. pyogenes GC 4563
S. agalactiae GC 4564 = experiment: MIC, broth microdilution
c. albicans GC 3066 = experiment: MIC, broth microdilution
E. coli = experiment: Range of MIC for E. coli strains; settings: Escherichia coli
Staph. = experiment: Range of MIC for Staph. strains, including MRSA; settings: Staphylococcus aureus, MRSA
Experimental: as §1
Representative compounds were first incubated in mouse serum for an hour prior to the in vitro testing against a panel of selected gram-positive and gram-negative bacteria strains. All compounds were also pre-incubated in water for an hour prior to testing as control. Representative compounds of Formula I were incubated in human serum prior to MIC determination.

[1] = c. albicans GC 3066, Water pre-incubation
[2] = 20 h, read-out: Range of MIC, E. coli (Mouse Serum)
[3] = read-out: Range of MIC, Staph (Mouse Serum)
[4] = read-out: Range of MIC, Staph (Water)

CCCCN(CC(=O)Nc1cc(N(C)C)c2c(c1O)C(=O)C1=C(O)[C@]3(O)C(=O)C(C(N)=O)=C(O)[C@@H](N(C)C)[C@@H]3C[C@@H]1C2)C(=O)OCOC(=O)Cc1ccccc1 [Example 12, ({[(2-{[(5aR,6aS,7S,10aS)-9-(aminocarbonyl)-4,7-bis(dimethylamino)-1,8,10a,11-tetrahydroxy-10,12-dioxo-5,5a,6,6a,7,10,10a,12-octahydrotetracen-2-yl]amino}-2-oxoethyl)(butyl)amino]carbonyl}oxy)methyl phenylacetate]
MIC (E. coli GC 2236; Mouse Serum pre-incubation): 1 µg/mL (≈ 1.29 µM) | MIC (E. coli GC 2236; Water pre-incubation): 16 µg/mL (≈ 20.6 µM) | MIC (E. coli GC 2235; Mouse Serum pre-incubation): 1 µg/mL (≈ 1.29 µM) | MIC (E. coli GC 2235; Water pre-incubation): 16 µg/mL (≈ 20.6 µM) | MIC (E. coli GC 2233; Mouse Serum pre-incubation): 1 µg/mL (≈ 1.29 µM) | MIC (E. coli GC 2233; Water pre-incubation): 32 µg/mL (≈ 41.1 µM) | MIC (E. coli GC 2270; Mouse Serum pre-incubation): 0.5 µg/mL (≈ 0.643 µM) | MIC (E. coli GC 2270; Water pre-incubation): 32 µg/mL (≈ 41.1 µM) | MIC (E. coli GC 2271; Mouse Serum pre-incubation): 0.5 µg/mL (≈ 0.643 µM) | MIC (E. coli GC 2271; Water pre-incubation): 16 µg/mL (≈ 20.6 µM) | MIC (E. coli GC 3226; Mouse Serum pre-incubation): 2 µg/mL (≈ 2.57 µM) | MIC (E. coli GC 3226; Water pre-incubation): 64 µg/mL (≈ 82.3 µM) | MIC (E. coli GC 1073; Mouse Serum pre-incubation): 1 µg/mL (≈ 1.29 µM) | MIC (E. coli GC 1073; Water pre-incubation): 64 µg/mL (≈ 82.3 µM) | MIC (S. typhimurium GC 2172; Mouse Serum pre-incubation): 4 µg/mL (≈ 5.14 µM) | MIC (S. typhimurium GC 2172; Water pre-incubation): > 64 µg/mL | MIC (S. aureus GC 1079; Mouse Serum pre-incubation): 2 µg/mL (≈ 2.57 µM) | MIC (S. aureus GC 1079; Water pre-incubation): 8 µg/mL (≈ 10.3 µM) | MIC (S. aureus GC 6335; Mouse Serum pre-incubation): 1 µg/mL (≈ 1.29 µM) | MIC (S. aureus GC 6335; Water pre-incubation): 2 µg/mL (≈ 2.57 µM) | MIC (S. aureus GC 6469; Mouse Serum pre-incubation): 4 µg/mL (≈ 5.14 µM) | MIC (S. aureus GC 6469; Water pre-incubation): 16 µg/mL (≈ 20.6 µM) | MIC (E. faecalis GC 4555; Mouse Serum pre-incubation): 0.5 µg/mL (≈ 0.643 µM) | MIC (E. faecalis GC 4555; Water pre-incubation): 4 µg/mL (≈ 5.14 µM) | MIC (E. faecalis GC 2265; Mouse Serum pre-incubation): 2 µg/mL (≈ 2.57 µM) | MIC (E. faecalis GC 2265; Water pre-incubation): 8 µg/mL (≈ 10.3 µM) | MIC (E. faecium GC 4556; Mouse Serum pre-incubation): 1 µg/mL (≈ 1.29 µM) | MIC (E. faecium GC 4556; Water pre-incubation): 4 µg/mL (≈ 5.14 µM) | MIC (E. faecium GC 2243; Mouse Serum pre-incubation): 0.5 µg/mL (≈ 0.643 µM) | MIC (E. faecium GC 2243; Water pre-incubation): 4 µg/mL (≈ 5.14 µM) | MIC (S. pyogenes GC 4563; Mouse Serum pre-incubation): 0.12 µg/mL (≈ 0.154 µM) | MIC (S. pyogenes GC 4563; Water pre-incubation): 0.25 µg/mL (≈ 0.321 µM) | MIC (S. agalactiae GC 4564; S. agalactiae GC 4564, Water pre-incubation): 0.25 UG/ML | MIC (S. agalactiae GC 4564; Streptococcus agalactiae, GC4564): 0.25 µg/mL (≈ 0.321 µM) | MIC (c. albicans GC 3066; Candida albicans, GC3066): > 64 µg/mL | MIC (c. albicans GC 3066; [1]): >64 UG/ML | MIC (E. coli; [2]): 0.5 to 2 µg/mL (≈ 0.643 to 2.57 µM) | MIC (E. coli; read-out: Minimum inhibitory concentration (MIC), E. coli (mouse serum)): 0.5 to 2 µg/mL (≈ 0.643 to 2.57 µM) | MIC (E. coli; read-out: Minimum inhibitory concentration (MIC), E. coli (water)): 16 to 64 µg/mL (≈ 20.6 to 82.3 µM) | MIC (E. coli; read-out: Range of MIC, E. coli (Water)): 16 to 64 µg/mL (≈ 20.6 to 82.3 µM) | MIC (Staph.; read-out: Minimum inhibitory concentration (MIC), Staph. (mouse serum)): 0.5 to 4 µg/mL (≈ 0.643 to 5.14 µM) | MIC (Staph.; read-out: Minimum inhibitory concentration (MIC), Staph. (water)): 1 to 16 µg/mL (≈ 1.29 to 20.6 µM) | MIC (Staph.; [3]): 0.5 to 4 µg/mL (≈ 0.643 to 5.14 µM) | MIC (Staph.; [4]): 1 to 16 µg/mL (≈ 1.29 to 20.6 µM)

CCCN(CC(=O)Nc1cc(N(C)C)c2c(c1O)C(=O)C1=C(O)[C@]3(O)C(=O)C(C(N)=O)=C(O)[C@@H](N(C)C)[C@@H]3C[C@@H]1C2)C(=O)OCOC(=O)c1ccc(F)cc1 [Example 8, ({[(2-{[(5aR,6aS,7S,10aS)-9-(aminocarbonyl)-4,7-bis(dimethylamino)-1,8,10a,11-tetrahydroxy-10,12-dioxo-5,5a,6,6a,7,10,10a,12-octahydrotetracen-2-yl]amino}-2-oxoethyl)(propyl)amino]carbonyl}oxy)methyl 4-fluorobenzoate]
MIC (E. coli GC 2236; Mouse Serum pre-incubation): 1 µg/mL (≈ 1.3 µM) | MIC (E. coli GC 2236; Water pre-incubation): 32 µg/mL (≈ 41.7 µM) | MIC (E. coli GC 2235; Mouse Serum pre-incubation): 1 µg/mL (≈ 1.3 µM) | MIC (E. coli GC 2235; Water pre-incubation): 16 µg/mL (≈ 20.8 µM) | MIC (E. coli GC 2233; Mouse Serum pre-incubation): 1 µg/mL (≈ 1.3 µM) | MIC (E. coli GC 2233; Water pre-incubation): 32 µg/mL (≈ 41.7 µM) | MIC (E. coli GC 2270; Mouse Serum pre-incubation): 1 µg/mL (≈ 1.3 µM) | MIC (E. coli GC 2270; Water pre-incubation): 64 µg/mL (≈ 83.4 µM) | MIC (E. coli GC 2271; Mouse Serum pre-incubation): 1 µg/mL (≈ 1.3 µM) | MIC (E. coli GC 2271; Water pre-incubation): 32 µg/mL (≈ 41.7 µM) | MIC (E. coli GC 3226; Mouse Serum pre-incubation): 2 µg/mL (≈ 2.6 µM) | MIC (E. coli GC 3226; Water pre-incubation): 64 µg/mL (≈ 83.4 µM) | MIC (E. coli GC 1073; Mouse Serum pre-incubation): 1 µg/mL (≈ 1.3 µM) | MIC (E. coli GC 1073; Water pre-incubation): 32 µg/mL (≈ 41.7 µM) | MIC (S. typhimurium GC 2172; Mouse Serum pre-incubation): 8 µg/mL (≈ 10.4 µM) | MIC (S. typhimurium GC 2172; Water pre-incubation): > 64 µg/mL | MIC (S. aureus GC 1079; Mouse Serum pre-incubation): 2 µg/mL (≈ 2.6 µM) | MIC (S. aureus GC 1079; Water pre-incubation): 4 µg/mL (≈ 5.21 µM) | MIC (S. aureus GC 6335; Mouse Serum pre-incubation): 1 µg/mL (≈ 1.3 µM) | MIC (S. aureus GC 6335; Water pre-incubation): 4 µg/mL (≈ 5.21 µM) | MIC (S. aureus GC 6469; Mouse Serum pre-incubation): 2 µg/mL (≈ 2.6 µM) | MIC (S. aureus GC 6469; Water pre-incubation): 8 µg/mL (≈ 10.4 µM) | MIC (E. faecalis GC 4555; Mouse Serum pre-incubation): 0.5 µg/mL (≈ 0.651 µM) | MIC (E. faecalis GC 4555; Water pre-incubation): 8 µg/mL (≈ 10.4 µM) | MIC (E. faecalis GC 2265; Mouse Serum pre-incubation): 2 µg/mL (≈ 2.6 µM) | MIC (E. faecalis GC 2265; Water pre-incubation): 8 µg/mL (≈ 10.4 µM) | MIC (E. faecium GC 4556; Mouse Serum pre-incubation): 1 µg/mL (≈ 1.3 µM) | MIC (E. faecium GC 4556; Water pre-incubation): 4 µg/mL (≈ 5.21 µM) | MIC (E. faecium GC 2243; Mouse Serum pre-incubation): 0.25 µg/mL (≈ 0.326 µM) | MIC (E. faecium GC 2243; Water pre-incubation): 2 µg/mL (≈ 2.6 µM) | MIC (S. pyogenes GC 4563; Mouse Serum pre-incubation): 0.12 µg/mL (≈ 0.156 µM) | MIC (S. pyogenes GC 4563; Water pre-incubation): 0.5 µg/mL (≈ 0.651 µM) | MIC (S. agalactiae GC 4564; Streptococcus agalactiae, GC4564, S. agalactiae GC 4564, Mouse Serum pre-incubation): 0.25 µg/mL (≈ 0.326 µM) | MIC (S. agalactiae GC 4564; Streptococcus agalactiae, GC4564, S. agalactiae GC 4564, Water pre-incubation): 0.5 µg/mL (≈ 0.651 µM) | MIC (c. albicans GC 3066; Candida albicans, GC3066): > 64 µg/mL | MIC (c. albicans GC 3066; [1]): >64 UG/ML | MIC (E. coli; [2]): 1 to 2 µg/mL (≈ 1.3 to 2.6 µM) | MIC (E. coli; read-out: Range of MIC, E. coli (mouse serum)): 1 to 2 µg/mL (≈ 1.3 to 2.6 µM) | MIC (Staph.; [3]): 0.5 to 4 µg/mL (≈ 0.651 to 5.21 µM) | MIC (Staph.; [4]): 1 to 8 µg/mL (≈ 1.3 to 10.4 µM) | MIC (Staph.; read-out: Range of MIC, Staph. (mouse serum)): 0.5 to 4 µg/mL (≈ 0.651 to 5.21 µM) | MIC (Staph.; read-out: Range of MIC, Staph. (water)): 1 to 8 µg/mL (≈ 1.3 to 10.4 µM)
